{"source": "ChEMBL document CHEMBL4270557", "about": "“Discovery of potent anti-convulsant carbonic anhydrase inhibitors: Design, synthesis, in vitro and in vivo appraisal” (Eur J Med Chem, 2018)", "key": {"Carbonic anhydrase 1": {"target": "Carbonic anhydrase 1 (Homo sapiens, UniProt P00915)", "sequence (P00915 whole entry)": "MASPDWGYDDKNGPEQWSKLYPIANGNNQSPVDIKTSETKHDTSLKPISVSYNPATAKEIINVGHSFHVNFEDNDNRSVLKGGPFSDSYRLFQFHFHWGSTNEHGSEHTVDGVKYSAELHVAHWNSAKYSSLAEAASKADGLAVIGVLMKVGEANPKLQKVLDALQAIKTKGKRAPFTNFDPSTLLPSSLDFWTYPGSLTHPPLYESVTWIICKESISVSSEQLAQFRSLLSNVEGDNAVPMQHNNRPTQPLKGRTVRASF", "assay": "Inhibition of human recombinant carbonic anhydrase 1 assessed as CO2 hydration preincubated for 15 mins prior to testing measured for 10 to 100 secs by phenol red dye-based stopped-flow assay"}, "Carbonic anhydrase 2": {"target": "Carbonic anhydrase 2 (Homo sapiens, UniProt P00918)", "assay": "Inhibition of human recombinant carbonic anhydrase 2 assessed as CO2 hydration preincubated for 15 mins prior to testing measured for 10 to 100 secs by phenol red dye-based stopped-flow assay"}, "Mus musculus [1]": {"system": "Mus musculus", "assay": "Anticonvulsant activity in Swiss albino mouse assessed as protection against maximal electroshock-induced seizures at 30 mg/kg, ip administered 0.5 hrs prior to 50 mA current induction relative to control", "type": "functional"}, "Mus musculus [2]": {"system": "Mus musculus", "assay": "Anticonvulsant activity in Swiss albino mouse assessed as protection against maximal electroshock-induced seizures at 30 mg/kg, ip administered 3 hrs prior to 50 mA current induction relative to control", "type": "functional"}, "Rattus norvegicus [3]": {"system": "Rattus norvegicus", "assay": "Anticonvulsant activity in Wistar rat assessed as protection against maximal electroshock-induced seizures at 30 mg/kg, po administered 0.25 hrs prior to 150 mA current induction relative to control", "type": "functional"}, "Rattus norvegicus [4]": {"system": "Rattus norvegicus", "assay": "Anticonvulsant activity in Wistar rat assessed as protection against maximal electroshock-induced seizures at 30 mg/kg, po administered 1 hr prior to 150 mA current induction relative to control", "type": "functional"}, "Rattus norvegicus [5]": {"system": "Rattus norvegicus", "assay": "Anticonvulsant activity in Wistar rat assessed as protection against maximal electroshock-induced seizures at 30 mg/kg, po administered 4 hrs prior to 150 mA current induction relative to control", "type": "functional"}, "Mus musculus [6]": {"system": "Mus musculus", "assay": "Anticonvulsant activity in Swiss albino mouse assessed as protection against maximal electroshock-induced seizures at 30 mg/kg, ip administered 6 hrs prior to 50 mA current induction relative to control", "type": "functional"}, "Mus musculus [7]": {"system": "Mus musculus", "assay": "Neurotoxicity in Swiss albino mouse at 30 mg/kg, ip after 30 to 120 mins by rotarod test", "type": "toxicity, organism-based", "settings": "in vivo"}, "Rattus norvegicus [8]": {"system": "Rattus norvegicus", "assay": "Sub-acute toxicity in Wistar rat assessed as neutrophils level at 100 mg/kg, po administered daily for 14 days (reference value: 23.4 +/- 2.9%)", "type": "organism-based", "settings": "in vivo, 336 h"}, "Rattus norvegicus [9]": {"system": "Rattus norvegicus", "assay": "Sub-acute toxicity in Wistar rat assessed as RBC level at 100 mg/kg, po administered daily for 14 days (reference value: 7.9 +/- 0.56 million/mm3)", "type": "organism-based", "settings": "in vivo, 336 h"}, "Rattus norvegicus [10]": {"system": "Rattus norvegicus", "assay": "Sub-acute toxicity in Wistar rat assessed as creatinine level at 100 mg/kg, po administered daily for 14 days (reference value: 0.62 +/- 0.3 mg/dl)", "type": "organism-based", "settings": "in vivo, 336 h"}, "Rattus norvegicus [11]": {"system": "Rattus norvegicus", "assay": "Sub-acute toxicity in Wistar rat assessed as uric acid level at 100 mg/kg, po administered daily for 14 days (reference value: 3.9 +/- 2.8 mg/dl)", "type": "organism-based", "settings": "in vivo, 336 h"}, "Rattus norvegicus [12]": {"system": "Rattus norvegicus", "assay": "Sub-acute toxicity in Wistar rat assessed as phosphorus level at 100 mg/kg, po administered daily for 14 days (reference value: 6.71 +/- 1 mg/dl)", "type": "organism-based", "settings": "in vivo, 336 h"}, "Rattus norvegicus [13]": {"system": "Rattus norvegicus", "assay": "Sub-acute toxicity in Wistar rat assessed as effect on food intake at 100 mg/kg, po administered daily for 14 days", "type": "organism-based", "settings": "in vivo, 336 h"}, "Homo sapiens": {"organism": "Homo sapiens", "assay": "Selectivity ratio of Ki for human recombinant carbonic anhydrase 9 to Ki for human recombinant carbonic anhydrase 7"}}, "data": [{"smiles": "Cc1ccc(N2CCN(c3ccc(/C=N/NC(=O)c4ccc(S(N)(=O)=O)cc4)cc3)CC2)c(C)c1", "values": [{"measurement": "Ki", "setting": "Carbonic anhydrase 1", "value": "> 10", "unit": "µM"}, {"measurement": "Ki", "setting": "Carbonic anhydrase 2", "value": 9.39, "unit": "µM"}, {"measurement": "Activity", "setting": "Mus musculus [1]", "value": "67 - 70%"}, {"measurement": "Activity", "setting": "Mus musculus [2]", "value": 70, "unit": "%"}, {"measurement": "Activity", "setting": "Rattus norvegicus [3]", "value": 17, "unit": "%"}, {"measurement": "Activity", "setting": "Rattus norvegicus [4]", "value": 84, "unit": "%"}, {"measurement": "Activity", "setting": "Rattus norvegicus [5]", "value": 50, "unit": "%"}, {"measurement": "Activity", "setting": "Mus musculus [6]", "value": 60, "unit": "%"}, {"measurement": "Activity", "setting": "Mus musculus [7]", "value": "Non-Toxic"}, {"measurement": "Activity", "setting": "Rattus norvegicus [8]", "value": 23.1, "unit": "%"}, {"measurement": "Activity", "setting": "Rattus norvegicus [9]", "value": 7.2, "unit": "million/mm3"}, {"measurement": "Activity", "setting": "Rattus norvegicus [10]", "value": 0.75, "unit": "mg/dL"}, {"measurement": "Activity", "setting": "Rattus norvegicus [11]", "value": 4.33, "unit": "mg/dL"}, {"measurement": "Activity", "setting": "Rattus norvegicus [12]", "value": 6.48, "unit": "mg/dL"}, {"measurement": "Activity", "setting": "Rattus norvegicus [13]", "value": "Non-Toxic"}, {"measurement": "Ratio Ki", "setting": "Homo sapiens", "value": 93}]}]}
